Where no end group is shown, it is not given here.
Tests used:
[1] = system: MUC1 and EGFR interaction; experiment: EGF-stimulated association of MUC1 and EGFR in ZR-75-1 cells (anti-MUC1-N precipitates immunoblotted); assay type: cell-based, human; details: EGF for 5 min, co-immunoprecipitation
Method: (§1) Cell culture. Human breast cancer (ZR-75-1, BT549) and lung cancer (CRL-5985, CRL-5909) cells were grown in RPMI1640 medium supplemented with 10% fetal bovine serum (FBS), 100 units/ml penicillin and 100 μg/ml streptomycin. The human breast cancer ([…], MCF-7), prostate cancer (LnCAP, DU145, PC3), lung cancer (A549), kidney epithelial (293) and Chinese hamster ovary (CHO-K1) cells were cultured in Dulbecco's Modified Eagle's medium (DMEM) supplemented with 10% FBS, antibiotics and 1 mM L-glutamine. The glycosylation deficient CHO-Lec2 and CHO-Lec8 cells (ATCC, Manassas, Va.) were grown in alpha minimum essential medium containing 10% FBS and antibiotics. In certain studies, cells were cultured in medium with 0.1% FBS for 24 hours and then stimulated with 100 ng/ml epidermal growth factor (EGF) (Calbiochem-Novabiochem, La Jolla, Calif.) for 5 minutes at 37° C.
Immunoblotting and precipitates. Lysates were prepared from subconfluent cells as described (Li et al., 2001). Immunoblot analysis was performed with antibodies specific for MUC1-C (Ab5; Neomarkers, Fremont, Calif.), galectin-3 (Abcam, Cambridge, Mass.), β-actin (Sigma-Aldrich, St. Louis, Mo.), epidermal growth factor receptor (EGFR) (Santa Cruz Biotechnology, Santa Cruz, Calif.), and MUC1-N (DF3) (Ren et al., 2004). Immune complexes were prepared as described with antibodies specific for MUC1-C and MUC1-N (Li et al., 1998). […]

EGFR and MUC1 clustering = experiment: Confocal microscopy of EGF-induced colocalization of EGFR and MUC1 in ZR-75-1 cells; assay type: cell-based, human; details: EGF for 5 min
Method: as §1
Immunofluorescence microscopy. Cells were fixed in 3.7% formaldehyde, permeabilized in 0.2% Triton™ X-100 and post-fixed in 3.7% formaldehyde. The cells were blocked with 10% normal goat serum and stained with antibodies specific for MUC1-N (MAb DF3) and antibodies specific for EGFR (Santa Cruz Biotechnology, Santa Cruz, Calif.), followed by fluorescein-conjugated antibodies specific for rabbit IgG or Texas Red-conjugated antibodies specific for mouse IgG (Jackson ImmunoResearch Laboratories, West Grove, Pa.). […]

MUC1-C/ED = biological target: T1, MUC1-C/ED (Homo sapiens, UniProt P15941); experiment: In vitro binding assay: hFc-MUC1-C/ED incubated with GST-galectin-3 deletion mutants, glutathione pull-down; details: immunoblot anti-MUC1-C/ED
T1 construct: made in house; host or cells: CHO-K1
T1 sequence (P15941 1098-1155): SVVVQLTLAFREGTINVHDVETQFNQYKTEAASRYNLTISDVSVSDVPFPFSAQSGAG
Method: (§2) In vitro binding assays. hFc and hFc-MUC1-C/ED were incubated with purified galectin-3 in lysis buffer for 1 hour at 4° C. The reaction products were precipitated with protein G-Sepharose™ and immunoblotted with anti-galectin-3. In other studies, hFc-MUC1-C/ED was incubated with GST-galectin-3 deletion mutants. The reaction products were precipitated with glutathione-sepharose 4B and immunoblotted with anti-MUC1-C/ED (Ren et al., 2004).

miR-322 [2] = experiment: Antisense inhibition of miR-322: galectin-3 expression in BT549/vector cells; assay type: cell-based, human; details: 72 h after transfection
Method: Immunoblotting and precipitates. Lysates were prepared from subconfluent cells as described (Li et al., 2001). Immunoblot analysis was performed with antibodies specific for MUC1-C (Ab5; Neomarkers, Fremont, Calif.), galectin-3 (Abcam, Cambridge, Mass.), β-actin (Sigma-Aldrich, St. Louis, Mo.), epidermal growth factor receptor (EGFR) (Santa Cruz Biotechnology, Santa Cruz, Calif.), and MUC1-N (DF3) (Ren et al., 2004). Immune complexes were prepared as described with antibodies specific for MUC1-C and MUC1-N (Li et al., 1998). For GST “pull-down” assays, GST or GST-galectin-3 was incubated with cell lysates for 2 hours at 4° C. and precipitated with glutathione-Sepharose™ 4B. Precipitates were subjected to immunoblotting with anti-MUC1-C, anti-galectin-3 (Santa Cruz Biotechnology, Santa Cruz, Calif.), anti-MUC1-N (DF3) (Ren et al., 2004), anti-EGFR (Santa Cruz Biotechnology), or anti-β-actin.
Quantitative real-time PCR. […] Quantification of galectin-3 transcripts was performed with primer pairs […] […] Relative gene expression was determined using the comparative ddCT (threshold) method with GAPDH as the internal control.
Antisense inhibition of miR-322. […] At 72 hours after transfection, the cells were analyzed for galectin-3 expression.

miR-322 [3] = experiment: Galectin-3 mRNA stability assay after actinomycin D in transfected BT549/vector cells; assay type: cell-based, human; details: BT549/vector cells transfected with oligo, then actinomycin D; quantitative RT-PCR
Method: mRNA stability assays. […] Total RNA was isolated and analyzed for galectin-3 and GAPDH mRNA levels by quantitative RT-PCT. The half life of galectin-3 mRNA was calculated using linear regression analysis. Antisense inhibition of miR-322. An antisense 2'-O-methyl oligoribonucleotide […] NO:20) against miR-322 and a scrambled 2'-O-methyl oligoribonucleotide […] NO:21) (Integrated DNA Technologies) were transfected into BT549 cells (50 pmol/10,000 cells) in the presence of LipofectamineTM 2000. At 72 hours after transfection, the cells were analyzed for galectin-3 expression.

[4] = biological target: T2, purified recombinant galectin-3 (Homo sapiens, UniProt P17931, P64H/T98P); experiment: In vitro binding assay: hFc proteins incubated with purified galectin-3, protein G precipitation, anti-galectin-3 immunoblot; details: 1 hour at 4° C.; protein G-Sepharose precipitation
T2 construct: GST fusion proteins with full-length galectin-3 or certain deletion mutants were prepared; made in house; host or cells: E. coli
T2 sequence (P17931 whole entry P64H/T98P, the tested form may be a part): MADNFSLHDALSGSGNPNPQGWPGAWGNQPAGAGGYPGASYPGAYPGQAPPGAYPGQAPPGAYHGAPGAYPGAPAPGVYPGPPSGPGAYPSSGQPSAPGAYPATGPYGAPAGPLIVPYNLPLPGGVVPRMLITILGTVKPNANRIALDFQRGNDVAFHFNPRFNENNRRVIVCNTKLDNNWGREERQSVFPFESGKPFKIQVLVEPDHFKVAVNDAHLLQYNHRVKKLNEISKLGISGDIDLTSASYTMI
Method: as §2

galectin-3 = biological target: T3, galectin-3 (Homo sapiens, UniProt P17931); experiment: Surface plasmon resonance (BIAcore): binding of MUC1-C/ED to immobilized galectin-3; details: galectin-3 immobilized on sensor chip, 25° C., 1:1 binding with a drifting base model, read-out: dissociation constant (KD) for binding to galectin-3
T3 construct: GST fusion proteins with full-length galectin-3 or certain deletion mutants were prepared; made in house; host or cells: E. coli
T3 sequence (P17931 whole entry P64H/T98P, the tested form may be a part): as above
Method: (§3) Surface plasmon resonance analysis. Surface plasmon resonance measurements were determined using a BIACORE™ 3000 instrument at 25° C. Galectin-3 and galectin-3(63-250) were covalently coupled to CM5 Biacore™ sensor chips (500-1000 RU) at 30 μg/ml using the Biacore™ Amine Coupling kit. hFc-MUC1-C/ED and hFc diluted in running buffer (50 mM Tris-HCl, pH 7.4, 150 mM NaCl, 0.005% NP-40) were injected across galectin-3, galectin-3(63-250) or control flow cells at a rate of 30 μl/min. Regeneration of the sensor surface was performed with a 30-second pulse of 100 mM lactose. Association and dissociation kinetic constants were calculated by BIAevaluation™ software using 1:1 binding with a drifting base model.

galectin-3(63-250) = biological target: T4, galectin-3(63-250) (Homo sapiens, UniProt P17931, T98P); experiment: Surface plasmon resonance (BIAcore): binding of MUC1-C/ED to immobilized galectin-3(63-250); details: galectin-3(63-250) immobilized on sensor chip, 25° C., 1:1 binding with a drifting base model, read-out: dissociation constant (KD) for binding to galectin-3(63-250)
T4 construct: made in house; host or cells: E. coli
T4 sequence (P17931 with tags, fused parts or gaps T98P): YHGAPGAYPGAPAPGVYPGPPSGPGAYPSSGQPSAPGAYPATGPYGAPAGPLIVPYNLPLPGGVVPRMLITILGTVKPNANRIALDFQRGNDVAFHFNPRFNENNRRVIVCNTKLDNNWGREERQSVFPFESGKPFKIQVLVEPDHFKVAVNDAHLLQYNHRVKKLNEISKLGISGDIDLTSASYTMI
Method: as §3

OC[C@H]1O[C@@H](O[C@H]2[C@H](O)[C@@H](O)C(O)O[C@@H]2CO)[C@H](O)[C@@H](O)[C@H]1O (stereo partly drawn) [lactose]
EGF-stimulated binding of MUC1 and EGFR [1]: attenuated
EGF-induced colocalization of EGFR and MUC1 in clusters (EGFR and MUC1 clustering): blocked

OC[C@H]1O[C@@](CO)(O[C@H]2O[C@H](CO)[C@@H](O)[C@H](O)[C@H]2O)[C@@H](O)[C@@H]1O [sucrose]
EGF-stimulated binding of MUC1 and EGFR [1]: not sucrose
EGF-induced colocalization of EGFR and MUC1 in clusters (EGFR and MUC1 clustering): not sucrose

GST-galectin-3(1-62): GST fusion of galectin-3 deletion mutant 1-62 that includes the ND
binding of MUC1-C/ED to GST-galectin-3 fusion proteins (pull-down) (MUC1-C/ED): no detectable binding

GST-galectin-3(1-138): GST fusion of galectin-3 deletion mutant 1-138 that includes the ND
binding of MUC1-C/ED to GST-galectin-3 fusion proteins (pull-down) (MUC1-C/ED): no detectable binding

GST-galectin-3(63-250): GST fusion of galectin-3 amino acids 63-250 that contains the CRD
binding of MUC1-C/ED to GST-galectin-3 fusion proteins (pull-down) (MUC1-C/ED): pulled-down

GST-galectin-3: GST fusion protein with full-length galectin-3
binding of MUC1-C/ED to GST-galectin-3 fusion proteins (pull-down) (MUC1-C/ED): pulled-down

anti-miR-322: antisense 2′-O-methyl oligoribonucleotide (GGUAUAGCAGCGCCUCACGUUUUG) (SEQ ID NO:20) against miR-322 (all 2'-O-methyl, backbone not given here)
galectin-3 expression at the protein level (miR-322 [2]; immunoblotting): upregulates
galectin-3 expression at the mRNA level (miR-322 [2]; quantitative RT-PCR): upregulates
half-life of galectin-3 transcripts (miR-322 [3]): 19.5 h

hFc-MUC1-C/ED: MUC1-C extracellular domain (58 amino acids) fused to human Fc, secreted from CHO-K1 cells (SVVVQLTLAFREGTINVHDVETQFNQYKTEAASRYNLTISDVSVSDVPFPFSAQSGAG; not fully specified (N-terminus); also: fused to dimerising human Fc)
binding of purified recombinant galectin-3 (immunoblot of adsorbates) [4]: binding of galectin-3 to hFc-MUC1-C/ED
Kd (galectin-3): 0.0111 µM
Kd (galectin-3(63-250)): 0.0098 µM

scrambled oligo: scrambled 2′-O-methyl oligoribonucleotide (CACGGAUCUAGGUCGUAACGUAGG) (SEQ ID NO:21), control (all 2'-O-methyl, backbone not given here) [reference compound]
half-life of galectin-3 transcripts (miR-322 [3]): 13.0 h

From patent US8420591B2, “MUC1 and galectin-3” (Dana-Farber Cancer Institute, Inc., priority 2006, dated 2013)
